# From the NIST ThermoML archive (doi:10.1016/j.jct.2011.12.019)
# ± gives the expanded uncertainty stated by the source.
# Test: molar enthalpy of vaporization or sublimation
# Details: 298.15 K, drop calorimetry
SMILES,molar enthalpy (Crystal),molar enthalpy (Liquid)
"Cc1ccc(C#N)n1C [1,5-dimethyl-2-pyrrolecarbonitrile]",18.7 ± 0.765 kcal/mol,–
N#Cc1ccc[nH]1 [2-cyanopyrrole;],–,15.6 ± 0.669 kcal/mol
